Experimental data published in ChEMBL document CHEMBL2440076, “New triarylpyrazoles as broad-spectrum anticancer agents: design, synthesis, and biological evaluation” (Eur J Med Chem, 2013).

Columns and labels:
[1] = test system: SN12C; assay: Growth inhibition of human SN12C cells assessed as cell growth at 10 uM after 48 hrs by sulforhodamine B assay; format: functional; details: read-out: Activity
[2] = test system: M14; assay: Growth inhibition of human M14 cells assessed as cell growth at 10 uM after 48 hrs by sulforhodamine B assay; format: functional; details: M14, 48 h, read-out: Activity
[3] = test system: SF-268; assay: Growth inhibition of human SF268 cells assessed as cell growth at 10 uM after 48 hrs by sulforhodamine B assay; format: functional; details: SF-268, 48 h, read-out: Activity
[4] = test system: NCI-H460; assay: Growth inhibition of human NCI-H460 cells assessed as cell growth at 10 uM after 48 hrs by sulforhodamine B assay; format: functional; details: NCI-H460, 48 h, read-out: Activity
[5] = test system: HCT-116; assay: Growth inhibition of human HCT116 cells after 48 hrs by sulforhodamine B assay; format: functional; details: HCT-116, 48 h; for CC50: read-out: LC50 (the source's name)
[6] = test system: NCI-H322M; assay: Growth inhibition of human NCI-H322M cells after 48 hrs by sulforhodamine B assay; format: functional; details: for CC50: read-out: LC50 (the source's name)
[7] = test system: MDA-MB-468; assay: Growth inhibition of human MDA-MB-468 cells after 48 hrs by sulforhodamine B assay; format: functional, cell-based; details: MDA-MB-468, 48 h; for CC50: read-out: LC50 (the source's name)
[8] = test system: UO-31; assay: Growth inhibition of human UO31 cells after 48 hrs by sulforhodamine B assay; format: functional; details: UO-31, 48 h; for CC50: read-out: LC50 (the source's name)
[9] = test system: PC-3; assay: Growth inhibition of human PC3 cells after 48 hrs by sulforhodamine B assay; format: functional, cell-based; details: PC-3, 48 h; for CC50: read-out: LC50 (the source's name)
[10] = test system: OVCAR-4; assay: Growth inhibition of human OVCAR4 cells after 48 hrs by sulforhodamine B assay; format: functional; details: OVCAR-4, 48 h
[11] = test system: LOX IMVI; assay: Growth inhibition of human LOXIMVI cells after 48 hrs by sulforhodamine B assay; format: functional
[12] = test system: SNB-19; assay: Growth inhibition of human SNB19 cells after 48 hrs by sulforhodamine B assay; format: functional; details: SNB-19, 48 h

Row | SMILES | growth at 10 µM [1] | growth at 10 µM [2] | growth at 10 µM [3] | growth at 10 µM [4] | GI50 [5] | TGI [5] | CC50 [5] | GI50 [6] | TGI [6] | CC50 [6] | GI50 [7] | IC50 [7] | TGI [7] | CC50 [7] | GI50 [8] | TGI [8] | CC50 [8] | GI50 [9] | IC50 [9] | TGI [9] | further results
1 | O=C(Nc1cccc(-n2cc(-c3ccncc3)c(-c3ccc(Cl)c(O)c3)n2)c1)c1ccc(Cl)c(C(F)(F)F)c1 | 98.6% | 82.5% | 98.1% | 104% |  |  |  |  |  |  |  |  |  |  |  |  |  |  |  |  | 
2 | O=C(Nc1cccc(-n2cc(-c3ccncc3)c(-c3ccc(Cl)c(O)c3)n2)c1)Nc1ccc(Cl)c(Cl)c1 | 18% | 17.2% | 29.1% | 6.5% | 1.19 µM | 5.73 µM | > 32.5 µM | 2.89 µM | > 32.5 µM | > 32.5 µM | 0.729 µM | 0.73 µM | 4.25 µM | > 32.5 µM | 1.25 µM | > 32.5 µM | > 32.5 µM | 0.834 µM | 0.83 µM | > 32.5 µM | CC50 [9]: > 32.5 µM; GI50 [10]: 1.69 µM; LC50 (concentration killing 50% of cells) [10]: > 32.5 µM; TGI [10]: > 32.5 µM; GI50 [11]: 0.939 µM; LC50 [11]: 15 µM; TGI [11]: 3.57 µM; GI50 [12]: 1.46 µM; LC50 (concentration killing 50% of cells) [12]: > 32.5 µM; TGI [12]: > 32.5 µM
3 | Cc1cc(C(=O)Nc2cccc(-n3cc(-c4ccncc4)c(-c4ccc(Cl)c(O)c4)n3)c2)ccc1Br | 101% | 89.5% | 104% | 108% |  |  |  |  |  |  |  |  |  |  |  |  |  |  |  |  | 
4 | COc1cc(-c2nn(-c3cccc(NC(=O)c4ccc(Br)c(C)c4)c3)cc2-c2ccncc2)ccc1Cl | 81% | 74.7% | 84.1% | 80.9% |  |  |  |  |  |  |  |  |  |  |  |  |  |  |  |  | 
5 | O=C(Nc1cccc(-n2cc(-c3ccncc3)c(-c3ccc(Cl)c(O)c3)n2)c1)Nc1cccc(C(F)(F)F)c1 | 14.6% | 16.6% | 28.5% | 7.29% | 1.39 µM | 8.26 µM | > 32.5 µM | 6.41 µM | > 32.5 µM | > 32.5 µM | 0.98 µM | 0.98 µM | 7.83 µM | > 32.5 µM | 1.86 µM | > 32.5 µM | > 32.5 µM | 0.948 µM | 0.95 µM | 22.5 µM | CC50 [9]: > 32.5 µM; GI50 [10]: 3.18 µM; LC50 (concentration killing 50% of cells) [10]: > 32.5 µM; TGI [10]: > 32.5 µM; GI50 [11]: 2.53 µM; LC50 [11]: 32.4 µM; TGI [11]: 9.58 µM; GI50 [12]: 1.91 µM; LC50 (concentration killing 50% of cells) [12]: > 32.5 µM; TGI [12]: > 32.5 µM
6 | COc1cc(-c2nn(-c3cccc(NC(=O)Nc4ccc(Cl)c(C(F)(F)F)c4)c3)cc2-c2ccncc2)ccc1Cl | 12.6% | -11.7% | 13.8% | 1.7% | 1.17 µM | 4.56 µM | 21.5 µM | 1.5 µM | 13.9 µM | > 32.5 µM | 0.833 µM | 0.83 µM | 4.42 µM | > 32.5 µM | 0.865 µM | 4.1 µM | > 32.5 µM | 0.69 µM | 0.69 µM | 2.45 µM | CC50 [9]: > 32.5 µM; GI50 [10]: 1.29 µM; LC50 (concentration killing 50% of cells) [10]: > 32.5 µM; TGI [10]: 25.6 µM; GI50 [11]: 1.17 µM; LC50 [11]: 17.9 µM; TGI [11]: 4.61 µM; GI50 [12]: 1.24 µM; LC50 (concentration killing 50% of cells) [12]: > 32.5 µM; TGI [12]: 9.24 µM
